Measured values from patent US20250059188A1, “ARYLSULPHONAMIDE COMPOUNDS” (Anaxis Pharma Pty Ltd, priority 2021, published 2025).

What was measured:
Conditions in all cases: equilibrium dissociation constant
human RIPK3 = human RIPK3 (Homo sapiens (Human), UniProt Q9Y572); assay: KINOMEscan binding assay, human RIPK3
Experimental: (§1) Binding affinity of the test compounds for human MLKL (full length), mouse MLKL (full length), human RIPK1 and human RIPK3 was determined using the KINOMEscan™ technology developed by DiscoverX (USA; http://www.discoverx.com). The assay was conducted according to manufacturer instructions.
(§2) Kinase assays. For most assays, kinase-tagged T7 phage strains were grown in parallel in 24-well blocks in an E. coli host derived from the BL21 strain. E. coli were grown to log-phase and infected with T7 phage from a frozen stock (multiplicity of infection=0.4) and incubated with shaking at 32° C. until lysis (90-150 minutes). The lysates were centrifuged (6,000×g) and filtered (0.2 μm) to remove cell debris. The remaining kinases were produced in HEK-293 cells and subsequently tagged with DNA for qPCR detection. […] The liganded beads were blocked with excess biotin and washed with blocking buffer (SeaBlock (Pierce), 1% BSA, 0.05% Tween 20, 1 mM DTT) to remove unbound ligand and to reduce non-specific phage binding. […] All reactions were performed in polypropylene 384-well plates in a final volume of 20 μL. […] The kinase concentration in the eluates was measured by qPCR.
(§3) An 11-point 3-fold serial dilution of each test compound was prepared in 100% DMSO at 100× final test concentration and subsequently diluted to 1× in the assay (final DMSO concentration=1%). Most Kos were determined using a compound top concentration=30,000 nM.
(§4) KD for each test compound was calculated with a standard dose-response curve using the Hill equation (equation (1)): […]
(§5) The Hill Slope was set to −1.
(§6) Curves were fitted using a non-linear least square fit with the Levenberg-Marquardt algorithm.

human MLKL (full length) = human MLKL (full length) (Homo sapiens (Human), UniProt Q8NB16); assay: KINOMEscan binding assay, human MLKL (full length)
Experimental: as §1, §2, §3, §4, §5, §6

human RIPK1 = human RIPK1 (Homo sapiens (Human), UniProt Q13546); assay: KINOMEscan binding assay, human RIPK1
Experimental: as §1, §2, §3, §4, §5, §6

human MLKL (full length), sequence (Q8NB16 whole entry): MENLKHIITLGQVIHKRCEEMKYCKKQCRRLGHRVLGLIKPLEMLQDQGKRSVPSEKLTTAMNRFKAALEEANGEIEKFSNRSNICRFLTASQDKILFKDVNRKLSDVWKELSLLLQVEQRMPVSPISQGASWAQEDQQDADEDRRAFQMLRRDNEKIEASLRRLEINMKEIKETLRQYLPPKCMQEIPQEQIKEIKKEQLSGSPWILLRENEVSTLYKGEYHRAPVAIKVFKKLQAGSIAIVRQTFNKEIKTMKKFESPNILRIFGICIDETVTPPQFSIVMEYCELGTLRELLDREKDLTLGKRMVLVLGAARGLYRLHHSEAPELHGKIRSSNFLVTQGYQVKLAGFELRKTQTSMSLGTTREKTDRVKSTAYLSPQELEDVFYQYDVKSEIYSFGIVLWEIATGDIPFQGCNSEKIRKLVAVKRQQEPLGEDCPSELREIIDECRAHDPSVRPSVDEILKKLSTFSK
human RIPK3, sequence (Q9Y572 whole entry): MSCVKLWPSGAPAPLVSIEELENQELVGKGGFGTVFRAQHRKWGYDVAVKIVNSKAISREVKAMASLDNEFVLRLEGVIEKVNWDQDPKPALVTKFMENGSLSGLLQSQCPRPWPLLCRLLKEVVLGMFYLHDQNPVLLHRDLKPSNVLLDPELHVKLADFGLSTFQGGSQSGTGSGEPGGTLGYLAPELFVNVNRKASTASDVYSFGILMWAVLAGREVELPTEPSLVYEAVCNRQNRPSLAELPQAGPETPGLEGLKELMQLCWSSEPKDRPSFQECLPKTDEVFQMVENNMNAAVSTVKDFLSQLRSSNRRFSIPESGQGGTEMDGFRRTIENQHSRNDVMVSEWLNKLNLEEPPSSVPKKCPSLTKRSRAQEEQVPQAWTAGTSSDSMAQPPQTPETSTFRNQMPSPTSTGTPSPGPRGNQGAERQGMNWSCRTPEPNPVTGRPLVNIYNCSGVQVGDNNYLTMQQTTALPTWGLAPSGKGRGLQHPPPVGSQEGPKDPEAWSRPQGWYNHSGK
human RIPK1, sequence (Q13546 whole entry): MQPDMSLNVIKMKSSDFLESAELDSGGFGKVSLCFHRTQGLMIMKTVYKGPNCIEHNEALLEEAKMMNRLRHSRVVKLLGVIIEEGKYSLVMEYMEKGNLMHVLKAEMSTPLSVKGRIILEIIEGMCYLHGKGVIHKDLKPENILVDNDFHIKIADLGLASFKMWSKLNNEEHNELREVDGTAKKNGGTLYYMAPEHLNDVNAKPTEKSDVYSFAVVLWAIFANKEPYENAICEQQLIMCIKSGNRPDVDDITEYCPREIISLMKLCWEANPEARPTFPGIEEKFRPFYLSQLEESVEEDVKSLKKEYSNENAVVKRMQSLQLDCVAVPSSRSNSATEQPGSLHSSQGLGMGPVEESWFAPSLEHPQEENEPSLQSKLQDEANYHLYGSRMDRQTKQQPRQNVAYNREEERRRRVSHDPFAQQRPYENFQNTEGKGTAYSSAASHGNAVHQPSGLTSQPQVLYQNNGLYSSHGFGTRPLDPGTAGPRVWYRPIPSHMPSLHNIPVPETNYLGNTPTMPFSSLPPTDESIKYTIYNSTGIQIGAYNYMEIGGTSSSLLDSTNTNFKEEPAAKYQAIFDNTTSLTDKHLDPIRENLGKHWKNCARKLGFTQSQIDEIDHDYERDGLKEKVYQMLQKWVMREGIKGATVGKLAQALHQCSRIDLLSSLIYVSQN

Structure (SMILES) | Kd (human RIPK3) [µM] | Kd (human MLKL (full length)) [µM] | Kd (human RIPK1) [µM]
CCS(=O)(=O)Nc1ccc(-c2nn(C)c3c(NC(C)=O)cnc(N)c23)cc1OCc1ccc(F)cc1 [Compound 2, N-(4-amino-3-(4-(ethylsulfonamido)-3-((4-fluorobenzyl)oxy)phenyl)-1-methyl-1H-pyrazolo[4,3-c]pyridin-7-yl)acetamide] | > 10 | 0.001 to 0.1 | > 10
CCS(=O)(=O)Nc1ccc(-c2coc3c(-c4cnn(CCO)c4)cnc(N)c23)cc1OCc1ccc(F)cc1 [Compound 4, N-(4-(4-amino-7-(1-(2-hydroxyethyl)-1H-pyrazol-4-yl)furo[3,2-c]pyridin-3-yl)-2-((4-fluorobenzyl)oxy)phenyl)ethanesulfonamide] | > 10 | 0.001 to 0.1 | > 10
Nc1ncc(-c2cnn(CCO)c2)c2occ(-c3ccc(NS(=O)(=O)C(F)F)c(OCc4ccc(F)cc4)c3)c12 [Compound 6, N-(4-(4-amino-7-(1-(2-hydroxyethyl)-1H-pyrazol-4-yl)furo[3,2-c]pyridin-3-yl)-2-((4-fluorobenzyl)oxy)phenyl)-1,1-difluoromethanesulfonamide] | > 10 | < 0.001 | > 10
Cn1nc(-c2ccc(NS(=O)(=O)C(F)F)c(OCc3ccc(F)cc3)c2)c2c(N)nccc21 [Compound 10, N-(4-{4-amino-1-methyl-1H-pyrazolo[4,3-c]pyridin-3-yl}-2-[(4-fluorophenyl)methoxy]phenyl)-1,1-difluoromethanesulfonamide] | > 10 | 0.001 to 0.1 | > 10
C[C@H](Oc1cc(-c2nn(C)c3ccnc(N)c23)ccc1NS(=O)(=O)C(F)F)c1ccc(F)cc1 [Compound 17, N-(4-{4-amino-1-methyl-1Hpyrazolo[4,3-c]pyridin-3-yl}-2-[(1S)-1-(4-fluorophenyl)ethoxy]phenyl)-1,1-difluoromethanesulfonamide] | > 10 | < 0.001 | > 10
C[C@H](Oc1cc(-c2cnn3ccnc(N)c23)ccc1NS(=O)(=O)C(F)F)c1ccc(F)cc1 [Compound 22, (S)—N-(4-(4-aminopyrazolo[1,5-a]pyrazin-3-yl)-2-(1-(4-fluorophenyl)ethoxy)phenyl)-1,1-difluoromethanesulfonamide] | > 10 | < 0.001 | > 10
Cc1noc(C)c1-c1cnc(N)c2c(-c3ccc(NS(=O)(=O)C(F)F)c(O[C@@H](C)c4ccc(F)cc4)c3)nn(C)c12 [Compound 33, (S)-N-(4-(4-amino-7-(3,5-dimethylisoxazol-4-yl)-1-methyl-1H-pyrazolo[4,3-c]pyridin-3-yl)-2-(1-(4-fluorophenyl)ethoxy)phenyl)-1,1-difluoromethanesulfonamide] | > 10 | 0.001 to 0.1 | > 10
C[C@H](Oc1cc(-c2nn(C)c3c(Cc4ccccc4)cnc(N)c23)ccc1NS(=O)(=O)C(F)F)c1ccc(F)cc1 [Compound 34, (S)-N-(4-(4-amino-7-benzyl-1-methyl-1H-pyrazolo[4,3-c]pyridin-3-yl)-2-(1-(4-fluorophenyl)ethoxy)phenyl)-1,1-difluoromethanesulfonamide] | > 10 | 0.001 to 0.1 | > 10
C[C@H](Oc1cc(-c2nn(C)c3c(-c4ccnc(N(C)C)c4)cnc(N)c23)ccc1NS(=O)(=O)C(F)F)c1ccc(F)cc1 [Compound 49, (S)-N-(4-(4-amino-7-(2-(dimethylamino)pyridin-4-yl)-1-methyl-1H-pyrazolo[4,3-c]pyridin-3-yl)-2-(1-(4-fluorophenyl)ethoxy)phenyl)-1,1-difluoromethanesulfonamide] | > 10 | 0.001 to 0.1 | > 10
C[C@H](Oc1cc(-c2nn(C)c3c(C4=CCCNC4)cnc(N)c23)ccc1NS(=O)(=O)C(F)F)c1ccc(F)cc1 [Compound 54, (S)—N-(4-(4-amino-1-methyl-7-(1,2,5,6-tetrahydropyridin-3-yl)-1H-pyrazolo[4,3-c]pyridin-3-yl)-2-(1-(4-fluorophenyl)ethoxy)phenyl)-1,1-difluoromethanesulfonamide] | > 10 | 0.001 to 0.1 | > 10
CCS(=O)(=O)Nc1ccc(-c2ncn3ccnc(N)c23)cc1OCc1ccc(F)cc1 [Compound 63, N-(4-(8-Aminoimidazo[1,5-a]pyrazin-1-yl)-2-((4-fluorophenyl)methoxy)phenyl) ethane-1-sulfonamide] | > 10 | 0.1 to 10 | > 10
CCS(=O)(=O)Nc1ccc(-c2cnn3ccnc(N)c23)cc1OCc1ccc(F)cc1 [Compound 64, N-(4-(4-Aminopyrazolo[1,5-a]pyrazin-3-yl)-2-((4-fluorophenyl)methoxy)phenyl)ethane-1-sulfonamide] | > 10 | 0.1 to 10 | > 10
Nc1n[nH]c2ccnc(-c3ccc(NS(=O)(=O)CC(F)(F)F)c(OCc4ccc(F)cc4)c3)c12 [Compound 65, N-(4-(3-amino-1H-pyrazolo[4,3-c]pyridin-4-yl)-2-((4-fluorophenyl)methoxy)phenyl)-2,2,2-trifluoroethane-1-sulfonamide] | > 10 | 0.001 to 0.1 | > 10
Nc1n[nH]c2nccc(-c3ccc(NS(=O)(=O)CC(F)(F)F)c(OCc4ccc(F)cc4)c3)c12 [Compound 67, N-(4-(3-Amino-1H-pyrazolo[3,4-b]pyridin-4-yl)-2-((4-fluorophenyl)methoxy)phenyl)-2,2,2-trifluoroethane-1-sulfonamide] | > 10 | < 0.001 | > 10
Nc1n[nH]c2ccnc(-c3ccc(NS(=O)(=O)C(F)F)c(OCc4ccc(F)cc4)c3)c12 [Compound 68, N-(4-(3-amino-1H-pyrazolo[4,3-c]pyridin-4-yl)-2-((4-fluorophenyl)methoxy)phenyl)-1,1-difluoromethanesulfonamide] | > 10 | 0.1 to 10 | > 10
C[C@H](Oc1cc(-c2nn(C)c3c(-c4cnn5c4CNCC5)cnc(N)c23)ccc1NS(=O)(=O)C(F)F)c1ccc(F)cc1 [Compound 90, (S)-N-(4-(4-amino-1-methyl-7-(4,5,6,7-tetrahydropyrazolo[1,5-a]pyrazin-3-yl)-1H-pyrazolo[4,3-c]pyridin-3-yl)-2-(1-(4-fluorophenyl)ethoxy)phenyl)-1,1-difluoromethanesulfonamide] | > 10 | 0.001 to 0.1 | > 10
C[C@H](Oc1cc(-c2nn(C)c3c(-c4cnn5c4CN(C)CC5)cnc(N)c23)ccc1NS(=O)(=O)C(F)F)c1ccc(F)cc1 [Compound 91, (S)—N-(4-(4-amino-1-methyl-7-(5-methyl-4,5,6,7-tetrahydropyrazolo[1,5-a]pyrazin-3-yl)-1H-pyrazolo[4,3-c]pyridin-3-yl)-2-(1-(4-fluorophenyl)ethoxy)phenyl)-1,1-difluoromethanesulfonamide] | > 10 | 0.1 to 10 | > 10
C[C@H](Oc1cc(-c2nn(C)c3c(-c4cnc(N5CCOCC5)nc4)cnc(N)c23)ccc1NS(=O)(=O)C(F)F)c1ccc(F)cc1 [Compound 110, (S)-N-(4-(4-amino-1-methyl-7-(2-morpholinopyrimidin-5-yl)-1H-pyrazolo[4,3-c]pyridin-3-yl)-2-(1-(4-fluorophenyl)ethoxy)phenyl)-1,1-difluoromethanesulfonamide] | > 10 | < 0.001 | > 10
COC[C@@H](Oc1cc(-c2nn(C)c3c(-c4cnn(C5CCOCC5)c4)cnc(N)c23)ccc1NS(=O)(=O)C(F)F)c1ccc(F)cc1 [Compound 112, (S)—N-(4-(4-amino-1-methyl-7-(1-(tetrahydro-2H-pyran-4-yl)-1H-pyrazol-4-yl)-1H-pyrazolo[4,3-c]pyridin-3-yl)-2-(1-(4-fluorophenyl)-2-methoxyethoxy)phenyl)-1,1-difluoromethanesulfonamide] | > 10 | 0.001 to 0.1 | > 10
C[C@H](Oc1cc(-c2nn(C)c3c(-c4cnc(N5CCCC5)nc4)cnc(N)c23)ccc1NS(=O)(=O)C(F)F)c1ccc(F)cc1 [Compound 114, (S)-N-(4-(4-amino-1-methyl-7-(2-(pyrrolidin-1-yl)pyrimidin-5-yl)-1H-pyrazolo[4,3-c]pyridin-3-yl)-2-(1-(4-fluorophenyl)ethoxy)phenyl)-1,1-difluoromethanesulfonamide] | > 10 | 0.001 to 0.1 | > 10
C[C@H](Oc1cc(-c2nn(C)c3c(-c4cnn(C5CCOCC5)c4)cnc(N)c23)ccc1NS(=O)(=O)Cc1ccccc1)c1ccc(F)cc1 [Compound 127, (S)-N-(4-(4-amino-1-methyl-7-(1-(tetrahydro-2H-pyran-4-yl)-1H-pyrazol-4-yl)-1H-pyrazolo[4,3-c]pyridin-3-yl)-2-(1-(4-fluorophenyl)ethoxy)phenyl)-1-phenylmethanesulfonamide] |  | 0.001 to 0.1 | 
